Like-named read-outs stand apart in the source and are kept apart here.
Experiments:
anaesthetized dog [1] = assay: Activity on the peripheral circulation, anaesthetized dog; type: in vivo
Experimental: The activity on the peripheral circulation was studied on an anaesthetized dog (sodium pentobarbital 30 mg/kg/i.v.). The femoral artery flow was measured by means of an electromagnetic or ultrasonic perivascular Doppler effect probe.

anaesthetized dog [2] = assay: Activity on the cerebral circulation, anaesthetized dog; type: in vivo; settings: for change in vivo at 2.5 mg/kg / change in vivo at 5 mg/kg / change in vivo at 2 mg/kg: Canis lupus familiaris, iv; for Increase of the extraction of cerebral oxygen: (A-V)/A
Experimental: The activity on the cerebral circulation was tested on an anaesthetized dog (sodium pentobarbital 30 mg/kg/i.v.). The vertebral artery flow was measured by means of an electromagnetic perivascular or ultrasonic Doppler effect probe. The intracerebral vascular resistance was estimated by the back pressure of the internal carotid artery. […] The increase in the extraction of cerebral oxygen was estimated by the following equation:(A-V)/A in which: A represents the volume of oxygen in the arterial blood (% volume) measured by hemoreflectometry (KIPP and ZONEN's apparatus) and quantity determination of the haemoglobin (DRABKIN's method). V represents the volume of oxygen in the cerebral venous blood (internal maxillary vein). […] It should be noted that the compounds tested were injected intravenously (rapid injection).

anaesthetized dog [3] = assay: Antiangorous activity on anaesthetized dog: consumption of oxygen in the left ventricule and cardiac effort (KATZ's index); type: in vivo; settings: for inhibition in vivo at 2.5 mg/kg / inhibition in vivo at 2.3 mg/kg / inhibition in vivo at 9.1 mg/kg: Canis lupus familiaris, iv
Summary of the method: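 Dogs anaesthetized with sodium pentobarbital 30 mg/kg i.v.; compounds given by slow i.v. perfusion. Left ventricular O2 consumption = coronary venous flow (Morawitz cannula in coronary sinus) × arteriovenous O2 difference; cardiac effort (Katz index) = mean arterial pressure × heart rate from D2 ECG.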

in vivo = settings: iv; for LD50: read-out: Toxicity: LD50
Description: *LD50 or percentage of mortality which is given between brackets

[4] = dog, 2,5 mg/kg i.v. rapid injection
[5] = Canis lupus familiaris, iv, dog, 5 mg/kg i.v. slow perfusion, read-out: Average arterial pressure
[6] = Canis lupus familiaris, iv, dog, 5 mg/kg i.v. slow perfusion, read-out: Femoral artery flow
[7] = dog, 5 mg/kg i.v. slow perfusion
[8] = dog, 5 mg/kg i.v. rapid injection, read-out: Internal carotid artery back pressure
[9] = dog, 5 mg/kg i.v. rapid injection, read-out: Vertebral artery flow
[10] = dog, 5 mg/kg i.v. rapid injection
[11] = 2.5 mg/kg i.v. slow perfusion, read-out: Diminution in consumption of O2
[12] = 2.5 mg/kg i.v. slow perfusion, read-out: Diminution in the cardiac effort (IK)
[13] = dog, 10 mg/kg i.v. slow perfusion
[14] = dog, 2 mg/kg i.v. rapid injection
[15] = dog, 2,5 mg/kg i.v. slow perfusion
[16] = dog, 2,5 mg/kg i.v. rapid injection, read-out: Internal carotid artery back pressure
[17] = dog, 2,5 mg/kg i.v. rapid injection, read-out: Systemic average arterial pressure
[18] = dog, 5 mg/kg i.v. rapid injection, read-out: Systemic average arterial pressure

COc1ccc(Cc2nccc3cc(OC)c(OC)cc23)cc1OC [Papaverine, papaverine, reference compound]
change in vivo at 2 mg/kg (anaesthetized dog [1]; Canis lupus familiaris, iv, read-out: Femoral artery flow): 100% | Femoral artery flow: in time (anaesthetized dog [1]; dog, 2 mg/kg i.v. slow perfusion): 1 min | change in vivo at 2.5 mg/kg (anaesthetized dog [2]; read-out: Internal carotid artery back pressure): -45% | change in vivo at 2.5 mg/kg (anaesthetized dog [2]; read-out: Vertebral artery flow): 100% | Internal carotid artery back pressure: in time (anaesthetized dog [2]; [4]): 5 min | Vertebral artery flow: in time (anaesthetized dog [2]; [4]): 6 min | Increase of the extraction of cerebral oxygen (anaesthetized dog [2]; [4]): 0%

COc1cc(/C=C/C(=O)N2CCN(CC(O)COc3ccccc3C)CC2)cc(OC)c1OC (stereo not drawn) [760 502]
change in vivo at 5 mg/kg (anaesthetized dog [1]; [5]): -22% | change in vivo at 5 mg/kg (anaesthetized dog [1]; [6]): 190% | Average arterial pressure: in time (anaesthetized dog [1]; [7]): 15 min | Femoral artery flow: in time (anaesthetized dog [1]; [7]): 35 min

C(=C\c1ccccc1)/CN1CCN(C(c2ccccc2)c2ccccc2)CC1 [Cinnarizine, cinnarizine, reference compound]
change in vivo at 5 mg/kg (anaesthetized dog [1]; [6]): 100% | Femoral artery flow: in time (anaesthetized dog [1]; [7]): 30 min | change in vivo at 5 mg/kg (anaesthetized dog [2]; [8]): -25% | change in vivo at 5 mg/kg (anaesthetized dog [2]; [9]): 130% | Internal carotid artery back pressure: in time (anaesthetized dog [2]; [10]): 30 min | Vertebral artery flow: in time (anaesthetized dog [2]; [10]): 30 min | Increase of the extraction of cerebral oxygen (anaesthetized dog [2]; [10]): 0%

COc1cc(/C=C/C(=O)N2CCN(CC(O)COc3cccc(Cl)c3)CC2)cc(OC)c1OC (stereo not drawn) [760 504]
change in vivo at 5 mg/kg (anaesthetized dog [1]; [5]): -23% | change in vivo at 5 mg/kg (anaesthetized dog [1]; [6]): 49% | Average arterial pressure: in time (anaesthetized dog [1]; [7]): 10 min | Femoral artery flow: in time (anaesthetized dog [1]; [7]): 15 min

COc1ccccc1OCC(O)CN1CCN(C(=O)/C=C/c2cc(OC)c(OC)c(OC)c2)CC1 (stereo not drawn) [760 392]
Diminution in consumption of O2: in time (anaesthetized dog [3]; 2.5 mg/kg i.v. slow perfusion): 30 min | Diminution in the cardiac effort (IK): in time (anaesthetized dog [3]; 2.5 mg/kg i.v. slow perfusion): 30 min | inhibition in vivo at 2.5 mg/kg (anaesthetized dog [3]; [11]): 31% | inhibition in vivo at 2.5 mg/kg (anaesthetized dog [3]; [12]): 11% | change in vivo at 10 mg/kg (anaesthetized dog [1]; Canis lupus familiaris, iv, dog, 10 mg/kg i.v. slow perfusion, read-out: Average arterial pressure): -28% | change in vivo at 10 mg/kg (anaesthetized dog [1]; Canis lupus familiaris, iv, dog, 10 mg/kg i.v. slow perfusion, read-out: Femoral artery flow): 56% | Average arterial pressure: in time (anaesthetized dog [1]; [13]): 38 min | Femoral artery flow: in time (anaesthetized dog [1]; [13]): 45 min | change in vivo at 2 mg/kg (anaesthetized dog [2]; dog, 2 mg/kg i.v. rapid injection, read-out: Internal carotid artery back pressure): -79% | change in vivo at 2 mg/kg (anaesthetized dog [2]; dog, 2 mg/kg i.v. rapid injection, read-out: Systemic average arterial pressure): -39% | change in vivo at 2 mg/kg (anaesthetized dog [2]; dog, 2 mg/kg i.v. rapid injection, read-out: Vertebral artery flow): 186% | Internal carotid artery back pressure: in time (anaesthetized dog [2]; [14]): > 30 min | Systemic average arterial pressure: in time (anaesthetized dog [2]; [14]): 30 min | Vertebral artery flow: in time (anaesthetized dog [2]; [14]): < 30 min

COc1cc(/C=C/C(=O)N2CCN(CC(O)COc3cccc(C)c3)CC2)cc(OC)c1OC (stereo not drawn) [760 521]
change in vivo at 5 mg/kg (anaesthetized dog [1]; [5]): -19% | change in vivo at 5 mg/kg (anaesthetized dog [1]; [6]): 34% | Average arterial pressure: in time (anaesthetized dog [1]; [7]): 30 min | Femoral artery flow: in time (anaesthetized dog [1]; [7]): 15 min

CCN(CC)CCOC(=O)C(Cc1cccc2ccccc12)CC1CCCO1 (stereo not drawn) [Naphtidrofuryl, naphtidrofuryl, reference compound]
change in vivo at 2.5 mg/kg (anaesthetized dog [1]; Canis lupus familiaris, iv, dog, 2,5 mg/kg i.v. slow perfusion, read-out: Average arterial pressure): -50% | change in vivo at 2.5 mg/kg (anaesthetized dog [1]; Canis lupus familiaris, iv, dog, 2,5 mg/kg i.v. slow perfusion, read-out: Femoral artery flow): 100% | Average arterial pressure: in time (anaesthetized dog [1]; [15]): 2 min | Femoral artery flow: in time (anaesthetized dog [1]; [15]): 5 min | change in vivo at 2.5 mg/kg (anaesthetized dog [2]; [16]): -26% | change in vivo at 2.5 mg/kg (anaesthetized dog [2]; [17]): -50% | change in vivo at 2.5 mg/kg (anaesthetized dog [2]; dog, 2,5 mg/kg i.v. rapid injection, read-out: Vertebral artery flow): 100% | Internal carotid artery back pressure: in time (anaesthetized dog [2]; [4]): 5 min | Systemic average arterial pressure: in time (anaesthetized dog [2]; [4]): 2 min | Vertebral artery flow: in time (anaesthetized dog [2]; [4]): 5 min | Increase of the extraction of cerebral oxygen (anaesthetized dog [2]; [4]): -50%

COc1cc(/C=C/C(=O)N2CCN(CC(O)COc3ccc(C#N)cc3)CC2)cc(OC)c1OC (stereo not drawn) [760 501]
Diminution in consumption of O2: in time (anaesthetized dog [3]; 2.3 mg/kg i.v. slow perfusion): 45 min | Diminution in the cardiac effort (IK): in time (anaesthetized dog [3]; 2.3 mg/kg i.v. slow perfusion): 15 min | inhibition in vivo at 2.3 mg/kg (anaesthetized dog [3]; 2.3 mg/kg i.v. slow perfusion, read-out: Diminution in consumption of O2): 75% | inhibition in vivo at 2.3 mg/kg (anaesthetized dog [3]; 2.3 mg/kg i.v. slow perfusion, read-out: Diminution in the cardiac effort (IK)): 4% | change in vivo at 5 mg/kg (anaesthetized dog [1]; [5]): -22% | change in vivo at 5 mg/kg (anaesthetized dog [1]; [6]): 61% | Average arterial pressure: in time (anaesthetized dog [1]; [7]): 35 min | Femoral artery flow: in time (anaesthetized dog [1]; [7]): 23 min

COc1cccc(OCC(O)CN2CCN(C(=O)/C=C/c3cc(OC)c(OC)c(OC)c3)CC2)c1 (stereo not drawn) [760 390]
Diminution in consumption of O2: in time (anaesthetized dog [3]; 9.1 mg/kg i.v. slow perfusion): 53 min | Diminution in the cardiac effort (IK): in time (anaesthetized dog [3]; 9.1 mg/kg i.v. slow perfusion): 45 min | inhibition in vivo at 9.1 mg/kg (anaesthetized dog [3]; 9.1 mg/kg i.v. slow perfusion, read-out: Diminution in consumption of O2): 64% | inhibition in vivo at 9.1 mg/kg (anaesthetized dog [3]; 9.1 mg/kg i.v. slow perfusion, read-out: Diminution in the cardiac effort (IK)): 60% | LD50 (in vivo): 227 mg/kg | change in vivo at 5 mg/kg (anaesthetized dog [2]; [8]): -22% | change in vivo at 5 mg/kg (anaesthetized dog [2]; [18]): -13% | change in vivo at 5 mg/kg (anaesthetized dog [2]; [9]): 177% | Internal carotid artery back pressure: in time (anaesthetized dog [2]; [10]): 5 min | Systemic average arterial pressure: in time (anaesthetized dog [2]; [10]): < 10 min | Vertebral artery flow: in time (anaesthetized dog [2]; [10]): 30 min

COc1cc(/C=C/C(=O)N2CCN(CC(O)COc3ccccc3C(C)=O)CC2)cc(OC)c1OC (stereo not drawn) [760 455]
Diminution in consumption of O2: in time (anaesthetized dog [3]; 2.5 mg/kg i.v. slow perfusion): 15 min | Diminution in the cardiac effort (IK): in time (anaesthetized dog [3]; 2.5 mg/kg i.v. slow perfusion): 30 min | inhibition in vivo at 2.5 mg/kg (anaesthetized dog [3]; [11]): 45% | inhibition in vivo at 2.5 mg/kg (anaesthetized dog [3]; [12]): 24% | mortality (in vivo; 255 mg/kg i.v., read-out: Toxicity (Mortality)): 50% | change in vivo at 5 mg/kg (anaesthetized dog [2]; [8]): -90% | change in vivo at 5 mg/kg (anaesthetized dog [2]; [18]): -39% | change in vivo at 5 mg/kg (anaesthetized dog [2]; [9]): 120% | Internal carotid artery back pressure: in time (anaesthetized dog [2]; [10]): 20 min | Systemic average arterial pressure: in time (anaesthetized dog [2]; [10]): 30 min | Vertebral artery flow: in time (anaesthetized dog [2]; [10]): 6 min

COc1cc(/C=C/C(=O)N2CCN(CC(O)COc3ccc(C)cc3)CC2)cc(OC)c1OC (stereo not drawn) [760 505]
change in vivo at 5 mg/kg (anaesthetized dog [1]; [5]): -21% | change in vivo at 5 mg/kg (anaesthetized dog [1]; [6]): 24% | Average arterial pressure: in time (anaesthetized dog [1]; [7]): 23 min | Femoral artery flow: in time (anaesthetized dog [1]; [7]): 15 min | change in vivo at 5 mg/kg (anaesthetized dog [2]; [8]): -38% | change in vivo at 5 mg/kg (anaesthetized dog [2]; [18]): -11% | change in vivo at 5 mg/kg (anaesthetized dog [2]; [9]): 113% | Internal carotid artery back pressure: in time (anaesthetized dog [2]; [10]): 10 min | Systemic average arterial pressure: in time (anaesthetized dog [2]; [10]): 20 min | Vertebral artery flow: in time (anaesthetized dog [2]; [10]): 10 min

COc1cc(/C=C/C(=O)N2CCN(CC(O)COc3cccc(C(C)=O)c3)CC2)cc(OC)c1OC (stereo not drawn) [770 458]
Diminution in consumption of O2: in time (anaesthetized dog [3]; 2.5 mg/kg i.v. slow perfusion): 23 min | Diminution in the cardiac effort (IK): in time (anaesthetized dog [3]; 2.5 mg/kg i.v. slow perfusion): 15 min | inhibition in vivo at 2.5 mg/kg (anaesthetized dog [3]; [11]): 72% | inhibition in vivo at 2.5 mg/kg (anaesthetized dog [3]; [12]): 25% | LD50 (in vivo): 250 mg/kg | change in vivo at 2.5 mg/kg (anaesthetized dog [2]; [16]): -11% | change in vivo at 2.5 mg/kg (anaesthetized dog [2]; [17]): -10% | Internal carotid artery back pressure: in time (anaesthetized dog [2]; [4]): 15 min | Systemic average arterial pressure: in time (anaesthetized dog [2]; [4]): 15 min | Increase of the extraction of cerebral oxygen (anaesthetized dog [2]; [4]): +35%

C=CCOc1ccccc1OCC(O)CN1CCN(C(=O)/C=C/c2cc(OC)c(OC)c(OC)c2)CC1 (stereo not drawn) [760 503]
change in vivo at 5 mg/kg (anaesthetized dog [1]; [5]): -6% | change in vivo at 5 mg/kg (anaesthetized dog [1]; [6]): 87% | Average arterial pressure: in time (anaesthetized dog [1]; [7]): 15 min | Femoral artery flow: in time (anaesthetized dog [1]; [7]): 15 min

Reference: patent publication US4178442A, “Novel cinnamoyles piperazines and homopiperazines, the method of preparing them and their application in therapeutics” (Delalande S. A., priority 1977, dated 1979)
